Test results as given in US7855290B2, “Pyridine derivatives and pyrimidine derivatives (3)” (Eisai R&D Management Co., Ltd., priority 2005, dated 2010).

Experiments:
[1] = system: Human gastric cancer cells (MKN-45); experiment: Inhibitory activity against the proliferation of human gastric cancer cells (MKN-45); type: cell-based; details: 72 h, MKN-45, 1% FBS RPMI1640, 3 days, Cell Counting Kit-8
Procedure: Human gastric cancer cells (MKN-45) were suspended in a 1% FBS-containing RPMI1640 medium (purchased from Sigma). The cell suspension (1×10^4 cells/ml) was added in a 96-well plate for cell culture (purchased from NUNC, Production No. 167008) at 0.1 ml/well, and then cultured in a 5% CO2 incubator (37° C.) overnight. After the culture, each well was supplied with 0.1 ml of a test substance diluted with a 1% FBS-containing RPMI1640 medium, followed by culturing in a 5% CO2 incubator (37° C.) for 3 days. After the culture, each well was supplied with 10 μl of Cell Counting Kit-8 (purchased from DOJINDO, Production No. 343-07623), followed by incubation in a 5% CO2 incubator (37° C.) for about 1.5 hrs. After the incubation, using the Plate Reader MTP-500 (Corona Electric), the absorbance of each well was determined at a measurement wavelength of 450 nm and a reference wavelength of 660 nm.

[2] = target: T1, HGFR (Homo sapiens, UniProt P08581); experiment: Inhibitory activity against the HGFR autophosphorylation using ELISA (MKN-45 cells); type: cell-based; details: 1 hr with test substance
T1 construct: endogenous in cells; host or cells: MKN-45 human gastric cancer cells
Procedure: Human gastric cancer cells (MKN-45) were suspended in a 1% FBS-containing RPMI1640 medium (purchased from Sigma). The cell suspension (1×10^5 cells/ml) was put in a 96-well plate for cell culture (purchased from NUNC, Production No. 167008) at 0.1 ml/well, and then cultured in a 5% CO2 incubator (37° C.) overnight. After the culture, from each well was removed the supernatant, followed by adding 0.05 ml of a 1% FBS-containing RPMI1640 medium. Then, the well was supplied with 0.05 ml of the test substance dissolved in dimethyl sulfoxide (diluted with a 1% FBS-containing RPMI1640 medium), followed by culturing in a 5% CO2 incubator (37° C.) for 1 hr. From each well was removed the supernatant, and each well was washed with 150 μl of PBS, followed by adding 100 μl of a lysis buffer (50 mM Hepes (pH 7.4), 150 mM NaCl, 10% (v/v) glycerol, 1% Triton X-100, 1.5 mM MgCl2, 1 mM EDTA (pH 8.0), 100 mM NaF, 1 mM PMSF, 10 μg/ml Aprotinin, 50 μg/ml Leupeptin, 1 μg/ml Pepstatin A and 1 mM Na3VO4). The plate was shaken at 4° C. for 1 hr to prepare the cell extract.
To a 96-well plate for ELISA (purchased from COSTAR, Production No. 3369) was added 50 μl of 60 mM bicarbonate buffer (pH 9.6) containing 50 μg/ml of an anti-phosphotyrosine antibody (PY20, purchased from Transduction Laboratory, Production No. P-11120). The plate was incubated at 4° C. overnight.
Each well of the plate prepared in 2. was washed three times with 200 μl of PBS, and supplied with 150 μl of 3% BSA/PBS, followed by incubating at room temperature for 2 hrs. Each well was washed three times with 200 μl of PBS, and supplied with 50 μl of the above cell extract, followed by incubating at 4° C. overnight. After the incubation, each well was washed three times with 250 μl of a washing solution (0.1% BSA, 20 mM Tris-HCl (pH 7.6), 137 mM NaCl, and 0.05% Tween-20), and supplied with 70 μl of anti-HGFR antibody (h-Met(C-12), purchased from Santa Cruz, Production No. sc-10) 2,000-fold diluted with a reaction solution (1% BSA, 20 mM Tris-HCl (pH 7.6), 137 mM NaCl and 0.05% Tween-20), followed by incubating at room temperature for 1 hr. The well was washed three times with 250 μl of the washing solution, and supplied with 70 μl of peroxidase-labelled anti-rabbit IgG antibody (purchased from Cell Signaling, Production No. 7074) 2,000-fold diluted with the reaction solution, followed by incubating at room temperature for 1 hr. Each well was washed three times with 250 μl of the washing solution, and supplied with 70 μl of TMB Membrane Peroxidase Substrate (purchased from Funakoshi, Production No. 50-5077-03), followed by incubating at room temperature for 10 min. Each well was supplied with 70 μl of 1 M phosphoric acid, and using the Plate Reader MTP-500 (Corona Electric), the absorbance of the well was instantly determined at a measurement wavelength of 450 nm. While defining the absorbance of a well supplied with the cell extract having no test substance as 100% HGFR autophosphorylation activity, and the absorbance of a well supplied with 50 μl of the lysis buffer as 0% HGFR autophosphorylation activity, the HGFR autophosphorylation activity (%) was calculated for each well.

[3] = target: T2, His6-HGFR (HGFR cytoplasmic domain) (Homo sapiens, UniProt P08581); experiment: Inhibitory activity against HGFR tyrosine kinase activity (HTRF); type: biochemical; details: biotin-poly(GT), ATP, 30° C. 10 min
T2 construct: made in house; host or cells: Sf9 insect cells (Spodoptera frugiperda), baculovirus, pFastBac-HT vector
Excerpt: The cytoplasmic domain of HGFR (Genbank Accession No. J02958) is a 1.3 kb DNA fragment beginning with Lys974 and including a stop codon, and described by Park et al. (Proc. Natl. Acad. Sci. U.S.A. 84(18), 6379-6383, 1987). The DNA fragment was isolated from the human placental cDNA library (purchased from Clontech) by PCR (TaKaRa Ex Taq™ Kit, purchased from TaKaRa) using two kinds of primers (SEQ ID NO: 1,5′-[…]-3′ and SEQ ID NO: 2,5′-[…]-3′, purchased from Invitrogen). The DNA fragment was cloned into a baculovirus transplace vector (pFastBac™-HT (purchased from GIBCO BRL)) to produce a recombinant construct. […] EGFR was purchased from Sigma (Production No. E-2645).
To the suspension of Sf9 cells (3×10^8 cells) in SF-900II medium (purchased from Invitrogen) containing 2% FBS was added a solution of HGFR transfected baculovirus above (4 ml), followed by a shaking culture at 27° C. for 48 hrs. The cells infected with the HGFR transfected baculovirus were centrifuged at 1,000 rpm, 4° C. for 5 min to remove the supernatant. The precipitated infected cells were suspended in 80 ml of ice-cold PBS, and centrifuged at 1,000 rpm, 4° C. for 5 min to remove the supernatant. The precipitated infected cells were suspended in 40 ml of ice-cold Lysis Buffer (50 mM Tris-HCl (pH 8.5), 5 mM 2-mercaptoethanol, 100 mM KCl, 1 mM PMSF and 1% (v/v) NP-40). The suspension was centrifuged at 12,000 rpm, 4° C. for 30 min to provide a supernatant.
The supernatant was loaded onto an Ni-NTA agarose column (3 ml, purchased from Qiagen) equilibrated with 30 ml of Buffer A (20 mM Tris-HCl (pH 8.5), 5 mM 2-mercaptoethanol, 500 mM KCl, 20 mM imidazole and 10% (v/v) glycerol). The column was washed with 30 ml of Buffer A, 6 ml of Buffer B (20 mM Tris-HCl (pH 8.5), 5 mM 2-mercaptoethanol, 1 M KCl, and 10% (v/v) glycerol) and 6 ml of Buffer A in this order. Then, the column was eluted with 6 ml of Buffer C (20 mM Tris-HCl (pH 8.5), 5 mM 2-mercaptoethanol, 100 mM KCl, 100 mM imidazole, and 10% (v/v) glycerol) to provide a fraction. The fraction was entrapped in a dialysis membrane (purchased from Spectrum Laboratories), dialyzed at 4° C. overnight with 1 L of dialysis buffer (20 mM Tris-HCl (pH 7.5), 10% (v/v) glycerol, 1 mM dithiothreitol, 0.1 mM Na3VO4 and 0.1 mM EGTA), and stored at −80° C. until used. […] The VEGFR2 cytoplasmic domain, the FGFR1 cytoplasmic domain, and the PDGFRβ cytoplasmic domain were fused with six histidine at the N terminus by the similar method to produce respective recombinant proteins (His6-VEGFR2, His6-FGFR1, and His6-PDGFRβ).
To each well of a 96-well round plate (purchased from NUNC, Production No. 163320) were added 10 μl of a solution for kinase reaction (200 mM Hepes (pH 7.4), 80 mM MgCl2, 16 mM MnCl2 and 2 mM Na3VO4), 250 ng of biotinylated poly(Glu4: Tyr1) (biotin-poly(GT), purchased from Japan Schering) (6 μl, 15-fold diluted with distilled water), 30 ng of His6-HGFR (10 μl, 60-fold diluted with 0.4% BSA) and a test substance dissolved in dimethylsulfoxide (4 μl, 100-fold diluted with 0.1% BSA) to mess up to 30 μl. To the well was added 10 μl of 4 μM ATP (purchased from Sigma) diluted with distilled water to incubate at 30° C. for 10 min, followed by adding 10 μl of 500 mM EDTA (pH 8.0) (purchased from Wako Pure Chemicals) to provide a kinase reaction solution.
The tyrosine-phosphorylated biotin-poly(GT) was detected using the Homogenous Time-Resolved Fluorescence (HTRF) method (Analytical Biochemistry, 269, 94-104, 1999).

T2 sequence (P08581 956-1390 limits assumed): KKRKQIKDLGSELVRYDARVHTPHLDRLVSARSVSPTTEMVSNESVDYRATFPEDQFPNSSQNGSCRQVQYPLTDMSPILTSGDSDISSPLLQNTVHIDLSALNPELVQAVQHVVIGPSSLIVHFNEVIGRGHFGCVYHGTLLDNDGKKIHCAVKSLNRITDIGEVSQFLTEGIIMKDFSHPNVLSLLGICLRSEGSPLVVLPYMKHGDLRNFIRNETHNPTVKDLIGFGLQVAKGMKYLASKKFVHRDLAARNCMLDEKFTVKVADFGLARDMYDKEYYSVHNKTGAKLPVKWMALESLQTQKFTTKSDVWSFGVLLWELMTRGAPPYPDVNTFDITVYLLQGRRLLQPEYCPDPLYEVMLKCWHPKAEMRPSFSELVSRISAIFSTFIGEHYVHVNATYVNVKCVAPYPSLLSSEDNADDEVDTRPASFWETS
T1 sequence (P08581 25-1390): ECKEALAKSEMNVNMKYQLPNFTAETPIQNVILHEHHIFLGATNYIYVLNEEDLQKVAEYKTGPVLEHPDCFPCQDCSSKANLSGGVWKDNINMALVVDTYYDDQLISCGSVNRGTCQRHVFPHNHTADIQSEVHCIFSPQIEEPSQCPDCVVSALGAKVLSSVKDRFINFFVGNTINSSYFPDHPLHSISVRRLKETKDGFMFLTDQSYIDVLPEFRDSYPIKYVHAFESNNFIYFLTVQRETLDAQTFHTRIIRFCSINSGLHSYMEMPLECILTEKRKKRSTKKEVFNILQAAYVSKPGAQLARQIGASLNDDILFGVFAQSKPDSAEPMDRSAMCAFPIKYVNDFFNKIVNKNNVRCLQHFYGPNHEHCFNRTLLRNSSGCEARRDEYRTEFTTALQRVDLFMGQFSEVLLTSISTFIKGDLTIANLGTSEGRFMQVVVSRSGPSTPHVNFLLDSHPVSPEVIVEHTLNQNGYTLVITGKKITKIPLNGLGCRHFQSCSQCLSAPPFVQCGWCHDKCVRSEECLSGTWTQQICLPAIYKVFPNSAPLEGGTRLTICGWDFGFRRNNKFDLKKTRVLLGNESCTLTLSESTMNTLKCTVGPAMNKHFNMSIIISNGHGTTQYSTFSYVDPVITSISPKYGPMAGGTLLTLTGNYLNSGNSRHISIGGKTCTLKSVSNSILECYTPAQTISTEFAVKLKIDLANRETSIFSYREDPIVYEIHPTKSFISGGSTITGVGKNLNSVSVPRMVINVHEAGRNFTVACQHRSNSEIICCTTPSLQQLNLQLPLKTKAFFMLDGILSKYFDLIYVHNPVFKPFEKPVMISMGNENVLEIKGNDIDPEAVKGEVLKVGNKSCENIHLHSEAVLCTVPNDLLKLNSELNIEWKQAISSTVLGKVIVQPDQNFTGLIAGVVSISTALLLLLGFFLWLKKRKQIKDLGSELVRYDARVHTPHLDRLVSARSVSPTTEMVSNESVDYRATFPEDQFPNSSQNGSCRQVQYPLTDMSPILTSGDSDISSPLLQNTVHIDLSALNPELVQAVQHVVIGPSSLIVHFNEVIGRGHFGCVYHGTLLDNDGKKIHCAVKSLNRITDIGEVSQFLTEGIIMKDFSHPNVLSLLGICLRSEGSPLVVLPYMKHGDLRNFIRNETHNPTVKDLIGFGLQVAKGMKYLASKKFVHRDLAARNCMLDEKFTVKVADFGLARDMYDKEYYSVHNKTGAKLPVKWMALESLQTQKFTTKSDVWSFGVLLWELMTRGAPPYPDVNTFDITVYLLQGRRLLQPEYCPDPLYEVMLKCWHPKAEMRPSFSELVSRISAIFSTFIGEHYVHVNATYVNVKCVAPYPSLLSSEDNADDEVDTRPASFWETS

IC50 [1] [nM]	IC50 [2] [nM]	IC50 [3] [nM]	Structure (SMILES)
4.9			CN1CCC(N(C)C(=O)Nc2cc(Oc3cc(F)c(NC(=O)C4(C(=O)Nc5ccc(F)cc5)CC4)cc3F)ccn2)CC1 [Example 94]
	370	270	CN1CCC(N(C)C(=O)Nc2cc(Oc3ccc(NC(=O)C4(C(=O)NCC(C)(C)C)CC4)c(F)c3)ccn2)CC1 [Example 53, N-(2,2-Dimethylpropyl)-N′-(2-fluoro-4-{[2-({[methyl(1-methylpiperidin-4-yl)amino]carbonyl}amino)pyridin-4-yl]oxy}phenyl)cyclopropane-1,1-dicarboxamide]
		640	CN(C)CC1CCN(C(=O)Nc2cc(Oc3ccc(NC(=O)C4(C(=O)Nc5ccc(F)cc5)CCC4)cc3F)ccn2)CC1 [Example 6, N-[4-({2-[({4-[(Dimethylamino)methyl]piperidin-1-yl}carbonyl)amino]pyridin-4-yl}oxy)-3-fluorophenyl]-N′-(4-fluorophenyl)cyclobutane-1,1-dicarboxamide]

The remaining lines, values behind:

Structure (SMILES)	IC50 [1] [nM]	IC50 [2] [nM]	IC50 [3] [nM]
O=C(Nc1cc(Oc2cc(F)c(NC(=O)C3(C(=O)Nc4ccc(F)cc4)CC3)cc2F)ccn1)N1CC(O)C1 [Example 91, N-[2,5-Difluoro-4-[(2-{[(3-hydroxyazetidin-1-yl)carbonyl]amino}pyridin-4-yl)oxy]phenyl}1-N′-(4-fluorophenyl)cyclopropane-1,1-dicarboxamide]	5		
CN1CCC(N(C)C(=O)Nc2cc(Oc3ccc(NC(=O)C4(C(=O)NCc5ccccc5)CC4)c(F)c3)ccn2)CC1 [Example 49, N-Benzyl-N′-(2-fluoro-4-{[2-({[methyl(1-methylpiperidin-4-yl)amino]carbonyl}amino)pyridin-4-yl]oxy}phenyl)cyclopropane-1,1-dicarboxamide]		260	180
CN1CCC(N(C)C(=O)Nc2cc(Oc3ccc(NC(=O)C4(C(=O)NC5CCCC5)CC4)c(F)c3)ccn2)CC1 [Example 52, N-Cyclopentyl-N′-(2-fluoro-4-{[2-({[methyl(1-methylpiperidin-4-yl)amino]carbonyl}amino)pyridin-4-yl]oxy}phenyl)cyclopropane-1,1-dicarboxamide]		170	160
CN1CCC(N(C)C(=O)Nc2cc(Oc3ccc(NC(=O)C4(C(=O)Nc5cccnc5)CC4)c(F)c3)ccn2)CC1 [Example 51, N-(2-Fluoro-4-{[2-({[methyl(1-methylpiperidin-4-yl)amino]carbonyl}amino)pyridin-4-yl]oxy}phenyl)-N′-pyridin-3-ylcyclopropane-1,1-dicarboxamide]		380	250
